Data from ChEMBL document CHEMBL3286339, “Synthesis and in vivo SAR study of indolin-2-one-based multi-targeted inhibitors as potential anticancer agents” (Eur J Med Chem, 2014).
pIC50: −log10 of the molar value. Active and inactive are the calls of the source. No cut-off for these calls is given here.

Key:
Aorta [1] = experiment: Antiangiogenic activity in Sprague-Dawley rat aortic ring at 0.2 ug/ml after 6 days by inverted microscopic analysis; format: functional, tissue-based
Mus musculus [2] = experiment: Toxicity in BALB/c nude mouse xenografted with human HT-29 cells assessed as bloody stool at 80 mg/kg/day administered qd measured up to day 21; format: organism-based; conditions: in vivo
Mus musculus [3] = experiment: Toxicity in BALB/c nude mouse xenografted with human NCI-H460 cells assessed as severe weight loss at 40 mg/kg/day administered qd; format: organism-based; conditions: in vivo
Mus musculus [4] = experiment: Toxicity in BALB/c nude mouse xenografted with human NCI-H460 cells assessed as hematuria at 40 mg/kg/day administered qd; format: organism-based; conditions: in vivo
HT-29 = experiment: Antitumor activity against human HT-29 cells xenografted in BALB/c nude mouse assessed as tumor growth inhibition at 80 mg/kg/day administered qd measured up to day 21 relative to control; format: functional
Aorta [5] = experiment: Inhibition of micrangium generation in Sprague-Dawley rat aortic ring at 0.2 ug/ml after 6 days by inverted microscopic analysis; format: functional, tissue-based
Mus musculus [6] = experiment: Toxicity in BALB/c nude mouse xenografted with human HT-29 cells assessed as hematuria at 80 mg/kg/day administered qd measured up to day 21; format: organism-based; conditions: in vivo
Mus musculus [7] = experiment: Toxicity in BALB/c nude mouse xenografted with human NCI-H460 cells assessed as bloody stool at 40 mg/kg/day administered qd; format: organism-based; conditions: in vivo
NCI-H460 [8] = experiment: Antitumor activity against human NCI-H460 cells xenografted in BALB/c nude mouse assessed as tumor growth inhibition at 40 mg/kg/day administered qd measured up to day 21 relative to control; format: functional
Mus musculus [9] = experiment: Toxicity in BALB/c nude mouse xenografted with human HT-29 cells assessed as severe weight loss at 80 mg/kg/day administered qd; format: organism-based; conditions: in vivo
Mus musculus [10] = experiment: Toxicity in BALB/c nude mouse xenografted with human HT-29 cells assessed as weight loss at 80 mg/kg/day administered qd measured up to day 21; format: organism-based; conditions: in vivo
Mus musculus [11] = experiment: Toxicity in BALB/c nude mouse xenografted with human HT-29 cells assessed as mortality at 80 mg/kg/day administered qd measured on day 15; format: organism-based; conditions: in vivo
Mus musculus [12] = experiment: Toxicity in BALB/c nude mouse xenografted with human HT-29 cells assessed as severe weight loss at 80 mg/kg/day administered qd measured after 6 days; format: organism-based; conditions: in vivo, 144 h
Mus musculus [13] = experiment: Toxicity in BALB/c nude mouse xenografted with human NCI-H460 cells assessed as severe weight loss at 40 mg/kg/day administered qd measured after 9 days; format: organism-based; conditions: in vivo, 216 h
Mus musculus [14] = experiment: Toxicity in BALB/c nude mouse xenografted with human NCI-H460 cells assessed as lethargic behavior at 40 mg/kg/day administered qd; format: organism-based; conditions: in vivo
Mus musculus [15] = experiment: Toxicity in BALB/c nude mouse xenografted with human NCI-H460 cells assessed as mortality at 40 mg/kg/day administered qd measured on day 15; format: organism-based; conditions: in vivo
Mus musculus [16] = experiment: Toxicity in BALB/c nude mouse xenografted with human NCI-H460 cells assessed as bloody stool at 40 mg/kg/day administered qd measured after 9 days; format: organism-based; conditions: in vivo, 216 h
Mus musculus [17] = experiment: Toxicity in BALB/c nude mouse xenografted with human NCI-H460 cells assessed as weakness at 40 mg/kg/day administered qd; format: organism-based; conditions: in vivo
Mus musculus [18] = experiment: Toxicity in BALB/c nude mouse xenografted with human HT-29 cells assessed as development of diarrhea at 80 mg/kg/day administered qd; format: organism-based; conditions: in vivo
Mus musculus [19] = experiment: Toxicity in BALB/c nude mouse xenografted with human HT-29 cells assessed as lethargic behavior at 80 mg/kg/day administered qd; format: organism-based; conditions: in vivo
Mus musculus [20] = experiment: Toxicity in BALB/c nude mouse xenografted with human HT-29 cells assessed as weakness at 80 mg/kg/day administered qd; format: organism-based; conditions: in vivo
Mus musculus [21] = experiment: Toxicity in BALB/c nude mouse xenografted with human HT-29 cells assessed as severe weight loss at 80 mg/kg/day administered qd measured after 9 days; format: organism-based; conditions: in vivo, 216 h
Mus musculus [22] = experiment: Toxicity in BALB/c nude mouse xenografted with human HT-29 cells assessed as mortality at 80 mg/kg/day administered qd measured after 6 days; format: organism-based; conditions: in vivo, 144 h
NCI-H526 = experiment: Antiproliferative activity against human NCI-H526 cells after 72 hrs by MTT assay; format: functional, cell-based; conditions: NCI-H526, 72 h
[23] = Antiproliferative activity against human Bel7402 cells after 72 hrs by MTT assay; format: functional, cell-based; conditions: Bel-7402, 72 h
[24] = Antiproliferative activity against human NCI-H3122 cells after 72 hrs by MTT assay; format: functional, cell-based; conditions: NCI-H3122, 72 h
[25] = Antiproliferative activity against human HK2 cells after 72 hrs by MTT assay; format: cell-based; conditions: HK-2, 72 h
Mus musculus [26] = experiment: Toxicity in BALB/c nude mouse xenografted with human HT-29 cells assessed as change in body weight at 80 mg/kg/day administered qd relative to control; format: organism-based; conditions: in vivo
[27] = Antiproliferative activity against human LO2 cells after 72 hrs by MTT assay; format: cell-based; conditions: L02, 72 h
[28] = Antiproliferative activity against human MV411 cells after 48 hrs by MTT assay; format: functional, cell-based; conditions: MV4-11, 48 h
NCI-H460 [29] = experiment: Antiproliferative activity against human NCI-H460 cells after 72 hrs by MTT assay; format: functional, cell-based; conditions: NCI-H460, 72 h
TT = experiment: Antiproliferative activity against human TT cells pretreated for 72 hrs followed by compound-washout measured after 72 hrs by MTT assay; format: functional, cell-based
Mus musculus [30] = experiment: Toxicity in BALB/c nude mouse xenografted with human HT-29 cells assessed as mortality at 80 mg/kg/day administered qd measured on day 21; format: organism-based; conditions: in vivo
Mus musculus [31] = experiment: Toxicity in BALB/c nude mouse xenografted with human HT-29 cells assessed as severe weight loss at 80 mg/kg/day administered qd measured after 12 to 15 days; format: organism-based; conditions: in vivo
Mus musculus [32] = experiment: Toxicity in BALB/c nude mouse xenografted with human NCI-H460 cells assessed as change in body weight at 40 mg/kg/day administered qd relative to control; format: organism-based; conditions: in vivo
Mus musculus [33] = experiment: Toxicity in BALB/c nude mouse xenografted with human HT-29 cells assessed as severe weight loss at 80 mg/kg/day administered qd measured after 3 days; format: organism-based; conditions: in vivo, 72 h
Mus musculus [34] = experiment: Toxicity in BALB/c nude mouse xenografted with human HT-29 cells assessed as mortality at 80 mg/kg/day administered qd measured on day 12; format: organism-based; conditions: in vivo

Cc1[nH]c(/C=C2\C(=O)Nc3ccc(F)cc32)c(C)c1NC(=O)CCN1CCCCC1
inhibition (Aorta [1]): Active | Activity (Mus musculus [2]): Non-toxic | Activity (Mus musculus [3]): Non-toxic | Activity (Mus musculus [4]): Non-toxic | Activity (HT-29): Active | inhibition (Aorta [5]): Active | Activity (Mus musculus [6]): Non-toxic | Activity (Mus musculus [7]): Non-toxic | TGI (NCI-H460 [8]): Active | Activity (Mus musculus [9]): Non-toxic

CCN(CC)CCC(=O)Nc1c(C)[nH]c(/C=C2\C(=O)Nc3ccc(Br)cc32)c1C
inhibition (Aorta [1]): Active | Activity (HT-29): Active | inhibition (Aorta [5]): Active | Activity (Mus musculus [9]): Toxic

Cc1[nH]c(/C=C2\C(=O)Nc3ccc(F)cc32)c(C)c1NC(=O)CCN1CCCC1
inhibition (Aorta [1]): Active | Activity (Mus musculus [3]): Non-toxic | Activity (Mus musculus [4]): Non-toxic | inhibition (Aorta [5]): Active | Activity (Mus musculus [7]): Non-toxic | TGI (NCI-H460 [8]): Active

Cc1[nH]c(/C=C2\C(=O)Nc3ccc(F)cc32)c(C)c1NC(=O)CN1CCCCC1
inhibition (Aorta [1]): Active | Activity (Mus musculus [3]): Non-toxic | Activity (Mus musculus [4]): Non-toxic | inhibition (Aorta [5]): Active | Activity (Mus musculus [7]): Non-toxic | TGI (NCI-H460 [8]): inactive

Cc1[nH]c(/C=C2\C(=O)Nc3ccc(F)cc32)c(C)c1NC(=O)CCN(C)C
inhibition (Aorta [1]): Active | Activity (HT-29): Active | inhibition (Aorta [5]): Active

Cc1[nH]c(/C=C2\C(=O)Nc3ccc(F)cc32)c(C)c1NC(=O)/C=C/CN(C)C
inhibition (Aorta [1]): Active | Activity (HT-29): inactive | inhibition (Aorta [5]): Active

Cc1[nH]c(/C=C2\C(=O)Nc3ccc(F)cc32)c(C)c1C(=O)N1CCN(CCO)CC1
inhibition (Aorta [1]): Active | Activity (HT-29): inactive | inhibition (Aorta [5]): Active

Cc1[nH]c(/C=C2\C(=O)Nc3ccc(F)cc32)c(C)c1NC(=O)CCN1CCOCC1
inhibition (Aorta [1]): Active | Activity (Mus musculus [2]): Non-toxic | Activity (HT-29): inactive | inhibition (Aorta [5]): Active | Activity (Mus musculus [6]): Non-toxic

CCN1CCN(C(=O)c2c(C)[nH]c(/C=C3\C(=O)Nc4ccc(F)cc43)c2C)CC1
inhibition (Aorta [1]): Active | Activity (Mus musculus [2]): Non-toxic | Activity (HT-29): Active | inhibition (Aorta [5]): Active | Activity (Mus musculus [6]): Non-toxic | Activity (Mus musculus [10]): Non-toxic

CCN1CCN(CCC(=O)Nc2c(C)[nH]c(/C=C3\C(=O)Nc4ccc(F)cc43)c2C)CC1
inhibition (Aorta [1]): Active | Activity (Mus musculus [2]): Non-toxic | Activity (Mus musculus [3]): Non-toxic | Activity (Mus musculus [4]): Non-toxic | Activity (HT-29): Active | inhibition (Aorta [5]): Active | Activity (Mus musculus [6]): Non-toxic | Activity (Mus musculus [7]): Non-toxic | TGI (NCI-H460 [8]): Active | Activity (Mus musculus [9]): Non-toxic

CCN(CC)CCC(=O)Nc1c(C)[nH]c(/C=C2\C(=O)Nc3ccc(F)cc32)c1C
inhibition (Aorta [1]): Active | Activity (HT-29): Active | inhibition (Aorta [5]): Active | Activity (Mus musculus [11]): Toxic | Activity (Mus musculus [12]): Toxic

Cc1[nH]c(/C=C2\C(=O)Nc3ccc(F)cc32)c(C)c1NC(=O)CN1CCN(C)CC1
Activity (Mus musculus [13]): Toxic | Activity (Mus musculus [14]): Toxic | Activity (Mus musculus [15]): Toxic | inhibition (Aorta [1]): Active | inhibition (Aorta [5]): Active | Activity (Mus musculus [16]): Toxic | Activity (Mus musculus [17]): Toxic

CCN(CC)C1CCN(C(=O)c2c(C)[nH]c(/C=C3\C(=O)Nc4ccc(F)cc43)c2C)CC1
Activity (Mus musculus [18]): Toxic | inhibition (Aorta [1]): Active | Activity (Mus musculus [19]): Toxic | Activity (Mus musculus [20]): Toxic | Activity (HT-29): Active | inhibition (Aorta [5]): Active | Activity (Mus musculus [21]): Toxic | Activity (Mus musculus [11]): Toxic | Activity (Mus musculus [12]): Toxic

Cc1[nH]c(/C=C2\C(=O)Nc3ccc(F)cc32)c(C)c1C(=O)N1CCC(N(C)C)CC1
Activity (Mus musculus [18]): Toxic | inhibition (Aorta [1]): Active | Activity (Mus musculus [19]): Toxic | Activity (Mus musculus [20]): Toxic | Activity (HT-29): Active | inhibition (Aorta [5]): Active | Activity (Mus musculus [22]): Toxic | Activity (Mus musculus [12]): Toxic

CCN(CC)CCNC(=O)c1c(C)[nH]c(/C=C2\C(=O)Nc3ccc(F)cc32)c1C [SUNITINIB]
pIC50 (NCI-H526): 6.00 | pIC50 [23]: 5.57 | pIC50 [24]: 6.08 | pIC50 [25]: 5.23 | Activity (Mus musculus [26]): -24.1% | Activity (HT-29): Active | Activity (HT-29; record 2): 88.9% | pIC50 [27]: 4.70 | pIC50 [28]: 8.52 | pIC50 (NCI-H460 [29]): 5.37 | pIC50 (TT): 7.40 | Activity (Mus musculus [30]): Toxic | TGI (NCI-H460 [8]): Active | Activity (Mus musculus [31]): Toxic | Activity (Mus musculus [32]): 12.3%

Cc1[nH]c(/C=C2\C(=O)Nc3ccc(F)cc32)c(C)c1NC(=O)CCCN(C)C
inhibition (Aorta [1]): Active | Activity (HT-29): Active | inhibition (Aorta [5]): Active

Cc1[nH]c(/C=C2\C(=O)Nc3ccc(F)cc32)c(C)c1C(=O)N1CCN(C)CC1
inhibition (Aorta [1]): Active | Activity (Mus musculus [2]): Non-toxic | Activity (HT-29): Active | inhibition (Aorta [5]): Active | Activity (Mus musculus [6]): Non-toxic | Activity (Mus musculus [10]): Non-toxic

CCN(CC)CCC(=O)Nc1c(C)[nH]c(/C=C2\C(=O)Nc3ccc(Cl)cc32)c1C
inhibition (Aorta [1]): Active | Activity (Mus musculus [33]): Toxic | inhibition (Aorta [5]): Active | Activity (Mus musculus [34]): Toxic
